By EC50 is commonly meant the concentration giving half of the maximal effect.

This note sets out measurements from US20070053834A1, “Radioligands for the TRP-M8 receptor and methods therewith” (priority 2003, published 2007).

Bounds are passed on as bounds.

T1 sequence (Q7Z2W7 whole entry): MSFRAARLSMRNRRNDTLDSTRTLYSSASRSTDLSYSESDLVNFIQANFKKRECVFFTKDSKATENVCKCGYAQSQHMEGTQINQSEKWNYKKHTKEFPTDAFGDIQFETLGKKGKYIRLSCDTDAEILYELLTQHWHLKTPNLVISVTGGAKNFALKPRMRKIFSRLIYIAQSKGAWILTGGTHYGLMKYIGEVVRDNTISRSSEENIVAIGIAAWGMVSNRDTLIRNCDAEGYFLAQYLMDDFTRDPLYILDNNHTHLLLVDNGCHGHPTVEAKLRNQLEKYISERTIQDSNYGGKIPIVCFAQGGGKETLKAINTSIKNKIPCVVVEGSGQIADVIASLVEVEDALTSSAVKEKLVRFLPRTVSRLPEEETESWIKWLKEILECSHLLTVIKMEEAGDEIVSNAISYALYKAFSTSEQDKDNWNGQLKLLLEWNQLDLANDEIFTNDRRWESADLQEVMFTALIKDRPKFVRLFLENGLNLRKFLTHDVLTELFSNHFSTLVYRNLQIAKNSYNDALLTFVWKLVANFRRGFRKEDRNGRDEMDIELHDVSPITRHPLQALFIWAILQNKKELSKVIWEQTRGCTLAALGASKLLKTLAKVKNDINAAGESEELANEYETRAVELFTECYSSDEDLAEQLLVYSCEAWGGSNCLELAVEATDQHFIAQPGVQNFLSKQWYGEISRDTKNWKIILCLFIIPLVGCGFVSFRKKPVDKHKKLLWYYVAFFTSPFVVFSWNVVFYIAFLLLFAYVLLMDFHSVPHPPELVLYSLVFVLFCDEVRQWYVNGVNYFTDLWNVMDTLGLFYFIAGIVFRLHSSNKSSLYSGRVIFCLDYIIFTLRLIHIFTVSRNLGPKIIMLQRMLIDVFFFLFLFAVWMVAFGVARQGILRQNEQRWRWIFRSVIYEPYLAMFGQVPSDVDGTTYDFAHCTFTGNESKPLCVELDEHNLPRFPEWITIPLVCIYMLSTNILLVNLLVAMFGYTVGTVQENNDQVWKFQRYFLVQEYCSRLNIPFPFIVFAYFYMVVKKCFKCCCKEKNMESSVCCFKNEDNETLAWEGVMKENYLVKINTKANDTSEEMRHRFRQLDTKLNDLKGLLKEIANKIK

One test addresses T1, TRP-M8 receptor (Homo sapiens, UniProt Q7Z2W7). Description: FLIPR calcium influx assay in HEK cells transfected with human TRP-M8. As to conditions: HEK cells with human TRP-M8, Fura-2, 29 or 37° C. It is filed as cell-based. Also noted: expressed in transfected cells; host or cells: HEK (human embryonic kidney) cells, permanently transfected. An excerpt: (§1) Cooling Actions on Skin. […] In Vitro Assays for TRP-M8 Activation. […] Brit. J Pharmacol. 2004 Feb; 141(4):737-45], and by A. K. Vogt-Eisele, D. Bura, H. Hatt, and E. T. Wei. [N-Alkylcarboxamide Cooling Agents: Activities on Skin and Cells with TRPM8 and TRPA1 Receptors. Acta Dermato-Venereol. 85: 468, 2005.] The data here were collected for the applicant by Dr. Afrodite Lourbakos of Unilever Research and Development, the Netherlands, using similar transfection methods and a FLIPR assay system. For the patch-clamp studies, using measurements of intracellular voltage changes, some of the data reported here were collected by Dr. Matthias Bödding of the University of the Saarland, and by Dr. Angela Vogt-Eisele of the Ruhr University at Bochum, Germany. FLIPR assay Human embryonic kidney (HEK) cells were permanently trausfected with plasmids containging the cDNA coding for the gene for the human TRP-M8 receptor. These cells were then incubated with a calcium fluorescence indicator (Fura-2) and incubated at either 29 or 37° C. These cells were then distributed into a 96-well fluorescence-plate image reader with automated drug dilution and computerized software for dose-response analysis. Cacium ion influx into cells after stimulation with compounds was quantified in fluorescence units. Compounds were dissolved in DMSO by ultrasonication to a 0.1 M solution. 5 μl of this stock was added to 5 mg of cyclodextrin and 5 ml of 140 Na-Tyrode, to achieve various final test concentrations.
Regarding `COc1ccc(NC(=O)C2CC(C)CCC2C(C)C)cc1` (stereo not shown) [CPS-112 (WS-12), N-(4′-methoxyphenyl)-2-isopropyl-5-methylcyclohexanecarboxamide], the EC50 was found to be 600 nM. Still for that read-out and setting: then `COc1ccc(NC(=O)C2CC(C)CCC2C(C)C)cc1F` (stereo not shown) [CPS-113, N-(3′-fluoro, 4′-methoxyphenyl)-2-isopropyl-5-methyl-cyclohexanecarboxamide], with 1300 nM.

For `CC1CCC(C(C)C)C(C(=O)Nc2ccc(I)cc2)C1` (stereo not shown) [CPS-120], the EC50 amounted to 10000 nM. Still for that read-out and setting: then `CC1CCC(C(C)C)C(C(=O)Nc2ccc(Br)cc2)C1` (stereo not shown) [CPS-123], with 6000 nM; and `CC1CCC(C(C)C)C(C(=O)Nc2ccc(F)cc2)C1` (stereo not shown) [CPS-124, N-(4′-fluorophenyl)-2-isopropyl-5-methylcyclohexanecarboxamide], with 1300 nM; and `CC1CCC(C(C)C)C(C(=O)Nc2ccc(S(=O)(=O)Nc3ncccn3)cc2)C1` (stereo not shown) [CPS-125, 2-Isopropyl-5-methyl-cyclohexanecarboxylic acid [4-(pyrimidin-2-ylsulfamoyl)-phenyl]-amide], with 6000 nM. The same measure, in the same setting: then `CC1CCC(C(C)C)C(C(=O)Nc2ccc(OC(F)(F)F)cc2)C1` (stereo not shown) [CPS-127], with greater than 100000 nM; and `CCOc1ccc(NC(=O)C2CC(C)CCC2C(C)C)cc1` (stereo not shown) [CPS-128], with 500 nM; and `CC1CCC(C(C)C)C(C(=O)Nc2ccc([N+](=O)[O-])c(C(F)(F)F)c2)C1` (stereo not shown) [CPS-138], with greater than 100000 nM. Regarding `COc1cccc(NC(=O)C2CC(C)CCC2C(C)C)c1` (stereo not shown) [CPS-141], the EC50 worked out at 6000 nM.

A further test deals with T1, TRP-M8 receptor. Description: Patch-clamp whole-cell recordings in TRP-M8 transfected HEK cells. The settings on record: whole-cell configuration, room temperature (20-23° C.). It is filed as cell-based. Set-up: expressed in transfected cells; host or cells: HEK (human embryonic kidney) cells, permanently transfected.
Text: as §1
Patch-Clamp Electrophysiological Recordings. HEK cells were prepared as above. Membrane currents were recorded in the whole-cell configuration using an EPC-9 amplifier (HEKA Elektronik, Lambrecht, Germany) as described previously (Bödding et al. 2002). […] Extracellular solution contained (in mM): 145 NaCl, 2 CaCl2, 2.8 KCl, 2 MgCl2, 11 glucose, 10 HEPES, adjusted to pH 7.2 with NaOH. Drugs were applied in the bath solution by a custom-made local perfusion system. The series resistance was compensated for 80 % and ranged between 5 and 10 MΩ. Currents were filtered using an 8-pole Bessel filter at 2.9 kHz and digitised at 100 μs. Voltage ramps (−110 mV to 90 mV in 50 ms) were applied at 0.5 Hz from a holding potential of −10 mV using PULSE software (HEKA Electronics). Several parameters such as capacitance, series resistance and holding current were monitored simultaneously at a slower rate (2 Hz) using the X-Chart display (HEKA Electronics). A liquid junction potential of 10 mV was applied to all voltages. All experiments were carried out at room temperature (20-23° C.). Internal solutions were kept on ice to minimize hydrolysis of ATP.
On the technique in general: The patch-clamp technique gives a direct electrical read-out from membranes.
`COc1ccc(NC(=O)C2CC(C)CCC2C(C)C)cc1` (stereo not shown) [CPS-112 (WS-12), N-(4′-methoxyphenyl)-2-isopropyl-5-methylcyclohexanecarboxamide] yielded an EC50 of 200 nM.

The molecule `COc1ccc(NC(=O)C2CC(C)CCC2C(C)C)cc1F` (stereo not shown) [CPS-113, N-(3′-fluoro, 4′-methoxyphenyl)-2-isopropyl-5-methyl-cyclohexanecarboxamide] displayed an EC50 of 1200 nM. In turn, `CC1CCC(C(C)C)C(C(=O)Nc2ccc(F)cc2)C1` (stereo not shown) [CPS-124, N-(4′-fluorophenyl)-2-isopropyl-5-methylcyclohexanecarboxamide] had an EC50 of 1200 nM.

As to `CC1CCC(C(C)C)C(C(=O)Nc2ccc(S(=O)(=O)Nc3ncccn3)cc2)C1` (stereo not shown) [CPS-125, 2-Isopropyl-5-methyl-cyclohexanecarboxylic acid [4-(pyrimidin-2-ylsulfamoyl)-phenyl]-amide], the EC50 came out at 3000 nM.

`COc1ccc(NC(=O)C2CC(C)CCC2C(C)C)c(I)c1` (stereo not shown) [CPS-129, N-(2′-iodo-4′methoxyphenyl)-2-isopropyl-5-methylcyclohexanecarboxamide] returned an EC50 of 300 nM. On the same count and under the same terms, under `CC1CCC(C(C)C)C(C(=O)N(C)C[C@H](O)c2cccc(O)c2)C1` (stereo partly shown) [CPS-195, 2-Isopropyl-5-methyl-cyclohexanecaboxylic acid [2-hydroxy-2-(3-hydroxy-phenyl)-ethyl]-methyl-amide] stands 100 nM.

Another test deals with T1, TRP-M8 receptor. Description: Cold sensation threshold on tongue (filter paper test). It is filed as in vivo. Set-up: The endogenous TRP-M8 receptor is a physiological receptor designed to detect temperature changes; from tissue; host or cells: tongue (sensory nerve endings), in vivo. The settings on record: filter paper 1 × 1 cm impregnated with compound, on tongue, 30 sec; presence or absence of cooling. An excerpt: In Vivo Assays for TRP-M8 Activation. The endogenous TRP-M8 receptor is a physiological receptor designed to detect temperature changes in its environment and to transmit this signal to the central nervous system so that appropriate regulatory responses can be initiated (e.g. vasoconstriction to reduce heat loss, putting on warmer clothing, avoiding the cold environment).
The TRP-M8 receptor on cold sensory nerve endings and on malignant cells, for example in the prostate, are biochemically identical proteins. Thus, the potency of a molecule to elicit cold sensations, for example on the tongue or skin, was used as surrogate index of the binding affinity of the molecule for the TRP-M8 receptor. A number of potent “N-radiohaloaryl-carboxamides” were synthesized and tested for use as precursors of the inventive compounds and the results are shown in Table 1.
As to `Cc1ccc(NC(=O)C2(C(C)C)CCCCCC2)c(C)c1` [N-(2′,4′-dimethylphenyl)-1-isopropylcycloheptanecarboxamide], the “Cold Sensation Threshold on Tongue” value came to 15 µg. The same measure, in the same setting: then `Cc1ccc(NC(=O)C(C)(C(C)C)C(C)C)c(C)c1` [N-(2′,4′-dimethylphenyl)-2-isopropyl-2,3-dimethylbutyramide], with 1 µg; and `Cc1ccc(NC(=O)C2CC(C)CCC2C(C)C)c(C)c1` (stereo not shown) [N-(2′,4′-dimethylphenyl)-2-isopropyl-5-methylcyclohexanecarboxamide], with 0.1 µg. As for `CC1CCC(C(C)C)C(C(=O)Nc2ccccc2O)C1` (stereo not shown) [N-(2′-hydroxyphenyl)-2-isopropyl-5-methylcyclohexanecarboxamide], the “Cold Sensation Threshold on Tongue” value was 0.5 µg.

For the molecule `COc1ccc(NC(=O)C2(C(C)C)CCCCCC2)cc1OC` [N-(3′,4′-dimethoxyphenyl)-1-isopropylcycloheptanecarboxamide], the “Cold Sensation Threshold on Tongue” value turned out to be 5 µg.

Take `Cc1ccc(NC(=O)C2(C(C)C)CCCCCC2)cc1C` [N-(3′,4′-dimethylphenyl)-1-isopropylcycloheptanecarboxamide]: the “Cold Sensation Threshold on Tongue” value amounted to 15 µg. The same measure, in the same setting: then `Cc1ccc(NC(=O)C(C)(C(C)C)C(C)C)cc1C` [N-(3′,4′-dimethylphenyl)-2-isopropyl-2,3-dimethylbutyramide], with 3 µg. The same measure, in the same setting: under `Cc1ccc(NC(=O)C2(C(C)C)CCCCCC2)cc1O` [N-(3′-hydroxy-4′-methylphenyl)-1-isopropylcycloheptanecarboxamide] stands 1 µg. Turning to `Cc1ccc(NC(=O)C2CC(C)CCC2C(C)C)cc1O` (stereo not shown) [N-(3′-hydroxy-4′-methylphenyl)-2-isopropyl-5-methylcyclohexanecarboxamide], the “Cold Sensation Threshold on Tongue” value worked out at 0.1 µg. The same measure, in the same setting: then `CC(=O)c1ccc(NC(=O)C2CC(C)CCC2C(C)C)cc1` (stereo not shown) [N-(4′-acetylphenyl)-2-isopropyl-5-methylcyclohexanecarboxamide], with 2 µg; and `CC1CCC(C(C)C)C(C(=O)Nc2ccc(Cl)cc2)C1` (stereo not shown) [N-(4′-chlorophenyl)-2-isopropyl-5-methylcyclohexanecarboxamide], with 8 µg.

On to `CCOC(=O)c1ccc(NC(=O)C2CC(C)CCC2C(C)C)cc1` (stereo not shown) [N-(4′-ethoxycarbonylphenyl)-2-isopropyl-5-methylcyclohexanecarboxamide], for which the “Cold Sensation Threshold on Tongue” value was determined as 5 µg. On the same count and under the same terms, under `CC1CCC(C(C)C)C(C(=O)Nc2ccc(F)cc2)C1` (stereo not shown) [N-(4′-fluorophenyl)-2-isopropyl-5-methylcyclohexanecarboxamide] stands 0.5 µg; under `CC1CCC(C(C)C)C(C(=O)Nc2ccc(O)cc2)C1` (stereo not shown) [N-(4′-hydroxyphenyl)-2-isopropyl-5-methylcyclohexanecarboxamide], 1 µg. The same measure, in the same setting: then `COc1ccc(NC(=O)C2(C(C)C)CCCCCC2)c(C)c1` [N-(4′-methoxy-2′-methylphenyl)-1-isopropylcycloheptanecarboxamide], with 0.2 µg; and `CCC1(C(=O)Nc2ccc(OC)cc2)CCCCCC1C` (stereo not shown) [N-(4′-methoxyphenyl)-1-ethyl-2-methylcycloheptanecarboxamide], with 6 µg; and `COc1ccc(NC(=O)C(C)(C(C)C)C(C)C)cc1` [N-(4′-methoxyphenyl)-2-isopropyl-2,3-dimethylbutyramide], with 0.5 µg. On the same count and under the same terms, then `COc1ccc(NC(=O)C(C)(CC(C)C)C(C)C)cc1` (stereo not shown) [N-(4′-methoxyphenyl)-2-isopropyl-2,4-dimethylpentanamide], with 2 µg; and `COc1ccc(NC(=O)C2CC(C)CCC2C(C)C)cc1` (stereo not shown) [N-(4′-methoxyphenyl)-2-isopropyl-5-methylcyclohexanecarboxamide], with 0.1 µg; and `CC1CCC(C(C)C)C(C(=O)Nc2ccc([N+](=O)[O-])cc2)C1` (stereo not shown) [N-(4′-nitrophenyl)-2-isopropyl-5-methylcyclohexanecarboxamide], with 0.3 µg.

On to `CC1CCC(C(C)C)C(C(=O)Nc2ccccc2)C1` (stereo not shown) [N-phenyl-2-isopropyl-5-methylcyclohexanecarboxamide], for which the “Cold Sensation Threshold on Tongue” value was determined as 20 µg. For `CC1CCC(C(C)C)C(C(=O)NCc2ccccc2)C1` (stereo not shown) [N-phenylmethyl-2-isopropyl-5-methylcyclohexanecarboxamide], the “Cold Sensation Threshold on Tongue” value worked out at 20 µg.

The test is the same for the next values; noted with them: oral.
Turning to `CCNC(=O)C1CC(C)CCC1C(C)C` (stereo not shown) [N-ethyl p-menthane-3-carboxamide, reference compound], the oral cooling threshold is 0.2 µg.

`CNC(=O)C1CC(C)CCC1C(C)C` (stereo not shown) [N-methyl p-menthane-3-carboxamide, reference compound] showed an oral cooling threshold of 1.1 µg.
